Reference: article PMC11494653, “Teixobactin “Swapmers” with L Tail Stereochemistry Retain Antibiotic Activity” (The Journal of Organic Chemistry, 2024)
In brackets after ≈: the same amount, converted by molar mass. Positions of bridges follow the written chain, without caps; N, C: chain ends. Non-standard residues stand in square brackets, D forms with d. Residues, ends and D or L forms follow the SMILES beside them. Chains are numbered I, II in the order given. d(aIle) = CC[C@H](C)[C@@H](N)C(=O)O; dNMeF = CN[C@H](Cc1ccccc1)C(=O)O; Nphe = O=C(O)CNCc1ccccc1

Assays:
Format in all cases: cell-based
[1] = test system: all bacteria tested; assay: MIC broth microdilution assay, summary over all bacteria; conditions: all bacteria tested other than B. subtilis
Excerpt: (§1) We determined the MIC values of these teixobactin swapmer prodrugs against the Gram-positive bacteria Bacillus subtilis, Staphylococcus epidermidis, methicillin-susceptible Staphylococcus aureus (MSSA), and methicillin-resistant Staphylococcus aureus (MRSA) in a broth microdilution assay as described previously.[9],[10] We used the antibiotic vancomycin as a positive control and the Gram-negative bacterium Escherichia coli as a negative control. The MIC values for Lys10-teixobactin 1, Lys10-teixobactin prodrug 2, Arg10-teixobactin 6, and Arg10-teixobactin prodrug 7 are shown in Table 1 for comparison with the swapmer analogues.
(§2) We performed minimum inhibitory concentration (MIC) assays as previously described.[9] A concise procedure is detailed below.
(§3) Stock solutions of teixobactin analogues were prepared gravimetrically by dissolving an appropriate amount of peptide in 20 mg/mL sterile DMSO. The stock solutions were stored at −20 °C for subsequent experiments.
Bacillus subtilis (ATCC 6051), Staphylococcus epidermidis (ATCC 14990), methicillin-susceptible Staphylococcus aureus (MSSA) (ATCC 29213), and Escherichia coli (ATCC 10798) were cultured from glycerol stocks in Mueller-Hinton broth containing 0.002% polysorbate 80 overnight in a shaking incubator at 37 °C. Methicillin-resistant Staphylococcus aureus (MRSA) (ATCC 700698) was cultured from a glycerol stock in brain hearth infusion broth containing 0.002% polysorbate 80 overnight in a shaking incubator at 37 °C. […] Briefly, we have previously determined the CFU/mL for each bacterium at OD600 = 0.075 for 200 μL of bacterial culture in a 96-well plate. The OD600 of each overnight culture was determined, and then each culture was diluted to OD600 = 0.075. […]
Aliquots of the 20 mg/mL peptide stock solutions were diluted to make a 64 μg/mL solution in Mueller-Hinton broth containing 0.002% polysorbate 80 and a 64 μg/mL solution in brain heart infusion broth containing 0.002% polysorbate 80. […] The optical density measurements were measured at 600 nm using a 96-well UV–vis plate reader (MultiSkan GO, Thermo Scientific). […]

[2] = test system: Bacillus subtilis ATCC 6051; assay: microbe, parasite or virus in culture; conditions: for MIC Bacillus subtilis ATCC 6051 / MIC B. subtilis: ATCC 6051, 16 h
Excerpt: as §1, §2, §3
(§4) Bacillus subtilis (ATCC 6051), Staphylococcus epidermidis (ATCC 14990), methicillin-susceptible Staphylococcus aureus (MSSA) (ATCC 29213), and Escherichia coli (ATCC 10798) were cultured from glycerol stocks in Mueller-Hinton broth containing 0.002% polysorbate 80 overnight in a shaking incubator at 37 °C. Methicillin-resistant Staphylococcus aureus (MRSA) (ATCC 700698) was cultured from a glycerol stock in brain hearth infusion broth containing 0.002% polysorbate 80 overnight in a shaking incubator at 37 °C. After overnight incubation, each culture was diluted with the appropriate media (containing 0.002% polysorbate 80) to 1 × 10^6 colony-forming units (CFU)/mL as previously described.[12],[15],[16] Briefly, we have previously determined the CFU/mL for each bacterium at OD600 = 0.075 for 200 μL of bacterial culture in a 96-well plate. The OD600 of each overnight culture was determined, and then each culture was diluted to OD600 = 0.075. Cultures were further diluted to achieve 1 × 10^6 CFU/mL solutions.
(§5) Aliquots of the 20 mg/mL peptide stock solutions were diluted to make a 64 μg/mL solution in Mueller-Hinton broth containing 0.002% polysorbate 80 and a 64 μg/mL solution in brain heart infusion broth containing 0.002% polysorbate 80. The solutions were mixed by pipetting to ensure homogeneity. A 200-μL aliquot of a 64 μg/mL solution was transferred to a 96-well plate. 2-fold serial dilutions were made with media containing 0.002% polysorbate 80 across the 96-well plate to achieve a final volume of 100 μL in each well (initial concentrations ranging from 64 to 0.0625 μg/mL). A 100-μL aliquot of a 1 × 10^6 CFU/mL bacterial solution was added to each well in the series, resulting in final bacterial concentrations of 5 × 10^5 CFU/mL in each well. As 100 μL of bacteria were added to each well, the concentration of peptide was also diluted 2-fold (final concentrations ranging from 32 μg/mL to 0.03125 μg/mL). Each plate was covered with a lid and incubated at 37 °C for 16 h. The optical density measurements were measured at 600 nm using a 96-well UV–vis plate reader (MultiSkan GO, Thermo Scientific). The MIC values were taken as the lowest concentration that had no bacterial growth. MIC assays for each compound were performed in triplicate to ensure reproducibility.

[3] = test system: Staphylococcus aureus (MSSA) ATCC 29213; assay: microbe, parasite or virus in culture; conditions: for MIC Staphylococcus aureus (MSSA) ATCC 29213: ATCC 29213, 16 h
Excerpt: as §1, §2, §3, §4, §5

[4] = test system: Staphylococcus aureus (MRSA) ATCC 700698; assay: microbe, parasite or virus in culture; conditions: for MIC Staphylococcus aureus (MRSA) ATCC 700698: ATCC 700698, 16 h
Excerpt: as §1, §2, §3, §4, §5

[5] = test system: Escherichia coli ATCC 10798; assay: microbe, parasite or virus in culture; conditions: for MIC Escherichia coli ATCC 10798: ATCC 10798, 16 h
Excerpt: as §1, §2, §3, §4, §5

[6] = test system: Staphylococcus epidermidis ATCC 14990; assay: microbe, parasite or virus in culture; conditions: for MIC Staphylococcus epidermidis ATCC 14990: ATCC 14990, 16 h
Excerpt: as §1, §2, §3, §4, §5

[7] = test system: Gram-positive bacteria tested; conditions: 16 h
Excerpt: as §1, §2, §3, §4
Aliquots of the 20 mg/mL peptide stock solutions were diluted to make a 64 μg/mL solution in Mueller-Hinton broth containing 0.002% polysorbate 80 and a 64 μg/mL solution in brain heart infusion broth containing 0.002% polysorbate 80. The solutions were mixed by pipetting to ensure homogeneity. A 200-μL aliquot of a 64 μg/mL solution was transferred to a 96-well plate. 2-fold serial dilutions were made with media containing 0.002% polysorbate 80 across the 96-well plate to achieve a final volume of 100 μL in each well (initial concentrations ranging from 64 to 0.0625 μg/mL). […] The optical density measurements were measured at 600 nm using a 96-well UV–vis plate reader (MultiSkan GO, Thermo Scientific). […]

Structure (SMILES) | MIC Bacillus subtilis ATCC 6051 [2] [µg/mL] | MIC Staphylococcus aureus (MSSA) ATCC 29213 [3] [µg/mL] | MIC Staphylococcus aureus (MRSA) ATCC 700698 [4] [µg/mL] | MIC Escherichia coli ATCC 10798 [5] [µg/mL] | MIC Staphylococcus epidermidis ATCC 14990 [6] [µg/mL] | MIC B. subtilis [2] [µg/mL] | MIC values against the Gram-positive bacteria tested [7] [µg/mL] | antibiotic activity in words against all other bacteria tested [1] | antibiotic activity in words against B. subtilis ([2]; concentration range tested up to 32 μg/mL) | fold reduced activity compared to the unswapped analogues 1, 2, 6, and 7 [7] | MIC ([2]; Bacillus subtilis, ATCC6051, 16 h, read-out: MIC Bacillus subtilis ATCC 6051) [µg/mL] | MIC ([3]; Staphylococcus aureus, 16 h, read-out: MIC Staphylococcus aureus (MSSA) ATCC 29213) [µg/mL] | MIC ([4]; Staphylococcus aureus, 16 h, read-out: MIC Staphylococcus aureus (MRSA) ATCC 700698) [µg/mL] | MIC ([5]; Escherichia coli, ATCC10798, 16 h, read-out: MIC Escherichia coli ATCC 10798) [µg/mL] | MIC ([6]; Staphylococcus epidermidis, ATCC14990, 16 h, read-out: MIC Staphylococcus epidermidis ATCC 14990) [µg/mL]
CC[C@H](C)[C@H](NC(=O)CNCc1ccccc1)C(=O)N[C@@H](CO)C(=O)N[C@H](C(=O)N[C@@H](CCC(N)=O)C(=O)N[C@H](C(=O)OC[C@H](N)C(=O)N[C@H]1C(=O)N[C@@H](C)C(=O)N[C@@H](CCCCN)C(=O)N[C@@H]([C@@H](C)CC)C(=O)O[C@H]1C)[C@@H](C)CC)[C@@H](C)CC [compound 5, N-Bn-Gly1,Ile4,Gln5,[Ile6-O-Ser7],Lys10-teixobactin] (I: H-[Nphe]ISIQI / II: H-S[dT]AKI; ester I:C-II:1, II:2-II:C) | 32 (≈ 26.6 µM) | >32 | >32 | >32 | >32 |  |  | inactive | only very weakly active |  |  |  |  |  | 
CC[C@H](C)[C@H](NC(=O)[C@@H](Cc1ccccc1)NC)C(=O)N[C@@H](CO)C(=O)N[C@H](CCC(N)=O)C(=O)N[C@@H](C(=O)N[C@H](C(=O)N[C@@H](CO)C(=O)N[C@H]1C(=O)N[C@@H](C)C(=O)N[C@@H](CCCNC(=N)N)C(=O)N[C@@H]([C@@H](C)CC)C(=O)O[C@H]1C)[C@@H](C)CC)[C@@H](C)CC [compound 6, Arg10-teixobactin] | ≤0.0313 | 2 (≈ 1.61 µM) | 2 (≈ 1.61 µM) | >32 | 0.5 (≈ 0.402 µM) | ≤ 0.0625 |  |  |  |  |  |  |  |  | 
CN[C@H](CC(C)C)C(=O)N[C@H]1C(=O)N[C@@H](CC(N)=O)C(=O)N[C@H]2C(=O)N[C@H]3C(=O)N[C@H](C(=O)N[C@H](C(=O)O)c4cc(O)cc(O)c4-c4cc3ccc4O)[C@H](O)c3ccc(c(Cl)c3)Oc3cc2cc(c3O[C@@H]2O[C@H](CO)[C@@H](O)[C@H](O)[C@H]2O[C@H]2C[C@](C)(N)[C@H](O)[C@H](C)O2)Oc2ccc(cc2Cl)[C@H]1O [vancomycin, reference compound] |  |  |  |  |  |  |  |  |  |  | 0.125 to 0.25 (≈ 0.0863 to 0.173 µM) | 1 to 2 (≈ 0.69 to 1.38 µM) | 4 (≈ 2.76 µM) | > 32 | 1 to 2 (≈ 0.69 to 1.38 µM)

More lines, main results first:

MIC Bacillus subtilis ATCC 6051 [2] [µg/mL] | MIC Staphylococcus aureus (MSSA) ATCC 29213 [3] [µg/mL] | MIC Staphylococcus aureus (MRSA) ATCC 700698 [4] [µg/mL] | MIC Escherichia coli ATCC 10798 [5] [µg/mL] | MIC Staphylococcus epidermidis ATCC 14990 [6] [µg/mL] | MIC B. subtilis [2] [µg/mL] | MIC values against the Gram-positive bacteria tested [7] [µg/mL] | Structure (SMILES) | antibiotic activity in words against all other bacteria tested [1] | antibiotic activity in words against B. subtilis ([2]; concentration range tested up to 32 μg/mL) | fold reduced activity compared to the unswapped analogues 1, 2, 6, and 7 [7] | MIC ([2]; Bacillus subtilis, ATCC6051, 16 h, read-out: MIC Bacillus subtilis ATCC 6051) [µg/mL] | MIC ([3]; Staphylococcus aureus, 16 h, read-out: MIC Staphylococcus aureus (MSSA) ATCC 29213) [µg/mL] | MIC ([4]; Staphylococcus aureus, 16 h, read-out: MIC Staphylococcus aureus (MRSA) ATCC 700698) [µg/mL] | MIC ([5]; Escherichia coli, ATCC10798, 16 h, read-out: MIC Escherichia coli ATCC 10798) [µg/mL] | MIC ([6]; Staphylococcus epidermidis, ATCC14990, 16 h, read-out: MIC Staphylococcus epidermidis ATCC 14990) [µg/mL]
0.0625 (≈ 0.0502 µM) | 2 (≈ 1.61 µM) | 1 (≈ 0.804 µM) | >32 | 0.5 (≈ 0.402 µM) | ≤ 0.0625 |  | CC[C@H](C)[C@H](NC(=O)[C@@H](Cc1ccccc1)NC)C(=O)N[C@@H](CO)C(=O)N[C@H](CCC(N)=O)C(=O)N[C@@H](C(=O)N[C@H](C(=O)OC[C@H](N)C(=O)N[C@H]1C(=O)N[C@@H](C)C(=O)N[C@@H](CCCNC(=N)N)C(=O)N[C@@H]([C@@H](C)CC)C(=O)O[C@H]1C)[C@@H](C)CC)[C@@H](C)CC [compound 7, [Ile6-O-Ser7],Arg10-teixobactin] (I: H-[dNMeF]IS[dQ][d(aIle)]I / II: H-S[dT]ARI; ester I:C-II:1, II:2-II:C) |  |  |  |  |  |  |  | 
2 (≈ 1.61 µM) | 4 (≈ 3.21 µM) | 4 (≈ 3.21 µM) | >32 | 2 (≈ 1.61 µM) |  | 2 to 4 | CC[C@H](C)[C@H](NC(=O)[C@H](CO)NC(=O)[C@@H](NC(=O)[C@@H](Cc1ccccc1)NC)[C@@H](C)CC)C(=O)N[C@@H](CCC(N)=O)C(=O)N[C@H](C(=O)OC[C@H](N)C(=O)N[C@H]1C(=O)N[C@@H](C)C(=O)N[C@@H](CCCNC(=N)N)C(=O)N[C@@H]([C@@H](C)CC)C(=O)O[C@H]1C)[C@@H](C)CC [compound 8, Ile4,Gln5,[Ile6-O-Ser7],Arg10-teixobactin] (I: H-[dNMeF]ISIQI / II: H-S[dT]ARI; ester I:C-II:1, II:2-II:C) |  |  | 2–4 fold |  |  |  |  | 
